Data: patent publication US12083130B2, “Combination hormone formulations and therapies” (Caren Pharmaceuticals, Inc., priority 2019, dated 2024)

What was measured:
Aβ levels = conditions: mice, cyclic administration, high levels 10 days in a row every 30 days; cited from earlier work
hypogonadal men = conditions: 12-year study, hypogonadal men who received T; […] for men who did not; cited from earlier work
[1] = test system: cortical rat neurons intoxicated with human AβO 1-42; assay: Example 10: neuroprotection of cortical neurons intoxicated with human AβO 1-42; type: cell-based; conditions: BDNF 50 ng/ml; human AβO 1-42 10 μM, 24 h
Excerpt: This is a prophetic example. The 40 and 42 amino acid forms are the most abundant B-amyloid (Aβ) peptide forms found in AD brain senile plaques, as disclosed herein. However, the number of senile plaques in a particular region of the AD brain correlates poorly with the local extent of neuron death or synaptic loss, or with cognitive impairment (Sisodia et al., 1990). Studies have shown a robust correlation between the soluble human Aβ 1-42 oligomer (AβO) levels and the extent of synaptic loss and severity of cognitive impairment (Sakono et al., 2010). This example investigates the neuroprotective effect of the composition prepared as described in Example 2 on cortical neurons incubated for 24 hours in the presence of AβO, an in vitro model of AD (Callizot et al., 2013). Brain-derived neurotrophic factor (BDNF) is used as a positive control in this study.
Cortical rat neurons are cultured at +37° C. in a humidified air/CO2 (95/5) atmosphere. After 11 days of culture, cortical neurons are intoxicated with human AβO 1-42 at 10 μM for 24 hrs. […]
The total number of cortical neurons that survive after 24 h incubation are counted to determine the end point evaluation. […]

CC(=O)[C@H]1CC[C@H]2[C@@H]3CCC4=CC(=O)CC[C@]4(C)[C@H]3CC[C@]12C [progesterone]
Aβ levels (Aβ levels): decreased Aβ levels

C[C@]12CC[C@H]3[C@@H](CCC4=CC(=O)CC[C@@]43C)[C@@H]1CC[C@@H]2O [T, testosterone]
rate of prostate cancer (hypogonadal men): 2.7%

B1: BDNF: Brain-derived neurotrophic factor, positive control (protein, UniProt P23560 19-247, looked up)
Neurotrophic factor BDNF …: APMKEANIRGQGGLAYPGVRTHGTLESVNGPKAGSRGLTSLADTFEHVIEELLDEDQKVRPNEENNKDADLYTSRVMLSSQVPLEPPLLFLLEEYKNYLDAANMSMRVRRHSDPARRGELSVCDSISEWVTAADKKTAVDMSGGTVTVLEKVPVSKGQLKQYFYETKCNPMGYTKEGCRGIDKRHWNSQCRTTQSYVRALTMDSKKRIGWRFIRIDTSCVCTLTIKRGR
cell death resulting from AβO [1]: inhibits cell death resulting from AβO
